# Laboratory results taken from ChEMBL document CHEMBL5338747, “Discovery of Quaternized Pyridine-Thiazole-Pleuromutilin Derivatives with Broad-Spectrum Antibacterial and Potent Anti-MRSA Activity” (J Med Chem, 2023).
# The source made the active and inactive calls. No cut-off for these calls is given here.
# Columns and labels:
# [1] = Metabolic stability in Sprague-Dawley rat assessed as parent compound remaining at 3 mg/kg, po measured after 10 mins by LC-MS analysis; format: ADME, organism-based; conditions: in vivo, read-out: Stability
# Staphylococcus aureus [2] = assay: Antibacterial activity against methicillin-resistant Staphylococcus aureus 222 assessed as inhibition of bacterial growth incubated for 24 hrs by broth microdilution method; format: functional
# [3] = tested on: Mycoplasmoides gallisepticum; assay: Anti-mycoplasma activity against Mycoplasma gallisepticum R NCTC10115 assessed as inhibition of mycoplasma growth measured after 7 days by broth microdilution method; format: functional; conditions: R NCTC10115, 168 h, time 7 day
# Cell membrane [4] = assay: Disruption of bacterial cell membrane in methicillin-resistant Staphylococcus aureus ATCC 33591 assessed as increase in red fluorescence intensity at 4XMIC incubated for 2 hrs by MycoLightGreen1198/PI staining based confocal laser scanning microscopy; format: subcellular
# Staphylococcus aureus [5] = assay: Bactericidal activity against methicillin-resistant Staphylococcus aureus ATCC 33591 assessed as reduction in bacterial colonies formation at 4XMIC incubated for 8 hrs in MHB followed by culturing on agar plate for 24 hrs by time-kill kinetics based analysis; format: functional; parameters: scale not given: the % may be the effect or the level left; conditions: time 32 hrs
# Salmonella enterica = assay: Antibacterial activity against Salmonella enterica ATCC 14028 assessed as inhibition of bacterial growth incubated for 24 hrs by broth microdilution method; format: functional
# Cell membrane [6] = assay: Disruption of bacterial cell membrane in Escherichia coli ATCC 25922 assessed as increase in fluorescence intensity at 8XMIC measured within 3 mins by DiBAC4(3) dye based fluorescence analysis relative to control
# Cell membrane [7] = assay: Disruption of bacterial cell membrane in methicillin-resistant Staphylococcus aureus ATCC 33591 assessed as reduction in green fluorescence intensity at MIC incubated for 2 hrs by MycoLightGreen1198/PI staining based confocal laser scanning microscopy; format: subcellular
# Staphylococcus aureus [8] = assay: Antibacterial activity against methicillin-resistant Staphylococcus aureus ATCC 33591 infected in Kunming mouse assessed as animal survival rate at 3 mg/kg, ip for 7 days starting from 1 hr post-infection; format: functional; conditions: ATCC 33591, 168 h, time 7 day
# [9] = Tmax in Sprague-Dawley rat at 1 mg/kg, iv by LC-MS analysis; format: ADME, organism-based; conditions: in vivo
# [10] = Aqueous solubility of the compound in physiological saline measured after 12 hrs by UV spectrophotometric analysis; format: physicochemical
# Staphylococcus aureus [11] = assay: Antibacterial activity against methicillin-resistant Staphylococcus aureus ATCC 43300 assessed as inhibition of bacterial growth incubated for 24 hrs by broth microdilution method; format: functional
# Staphylococcus aureus [12] = assay: Antibacterial activity against methicillin-resistant Staphylococcus aureus ATCC 33591 assessed as inhibition of bacterial growth incubated for 24 hrs by broth microdilution method; format: functional
# Mycoplasmopsis synoviae = assay: Anti-mycoplasma activity against Mycoplasma synoviae WVU1853 NCTC10124 assessed as inhibition of mycoplasma growth measured after 7 days by broth microdilution method; format: functional; conditions: WVU1853 NCTC10124, 168 h, time 7 day
# Escherichia coli [13] = assay: Antibacterial activity against Escherichia coli CMCC 44103 assessed as inhibition of bacterial growth incubated for 24 hrs by broth microdilution method; format: functional
# Escherichia coli [14] = assay: Bactericidal activity against Escherichia coli ATCC 25922 assessed as reduction in bacterial colonies formation at 2XMIC incubated for 12 hrs in MHB followed by culturing on agar plate for 24 hrs by time-kill kinetics based analysis; format: functional; parameters: scale not given: the % may be the effect or the level left; conditions: time 36 hrs
# [15] = Cytotoxicity against human A549 cells assessed as reduction in cell viability measured after 48 hrs by CCK8 assay; format: toxicity, cell-based
# [16] = Cmax in Sprague-Dawley rat at 1 mg/kg, iv by LC-MS analysis; format: ADME, organism-based; parameters: dose 1 mg/kg, route iv; conditions: in vivo
# Cell membrane [17] = assay: Disruption of bacterial cell membrane in methicillin-resistant Staphylococcus aureus ATCC 33591 assessed as increase in fluorescence intensity by DiBAC4(3) dye based fluorescence analysis; format: subcellular
# Staphylococcus aureus [18] = assay: Antibacterial activity against […] assessed as inhibition of bacterial growth incubated for 24 hrs by broth microdilution method; format: functional; conditions: ATCC 29213
# Staphylococcus aureus [19] = assay: Antibacterial activity against methicillin-resistant Staphylococcus aureus 596 assessed as inhibition of bacterial growth incubated for 24 hrs by broth microdilution method; format: functional
# [20] = Cytotoxicity against human HepG2 cells assessed as reduction in cell viability measured after 48 hrs by CCK8 assay; format: toxicity, cell-based
# Staphylococcus aureus [21] = assay: Antibacterial activity against methicillin-resistant Staphylococcus aureus ATCC 33591 infected in Kunming mouse assessed as reduction in bacterial load in lungs at 5 to 10 mg/kg, ip for 2 days starting from 1 hr post-infection by hematoxylin-eosin staining based analysis; format: functional, organism-based; conditions: dose 5-10 mg/kg, time 2.0 day
# Staphylococcus aureus [22] = assay: Disruption of biofilm formation in methicillin-resistant Staphylococcus aureus ATCC 33591 assessed as inhibition of biofilm formation at MIC measured after 24 hrs by crystal violet staining based analysis; format: functional
# [23] = Cytotoxicity against human HEK293 cells assessed as reduction in cell viability measured after 48 hrs by CCK8 assay; format: toxicity, cell-based
# [24] = AUC(0 to t) in Sprague-Dawley rat at 1 mg/kg, iv by LC-MS analysis; format: ADME, organism-based; parameters: dose 1 mg/kg, route iv; conditions: in vivo
# Staphylococcus aureus [25] = assay: Potency index, ratio of moxifloxacin MIC to test compound MIC for antibacterial activity against methicillin-resistant Staphylococcus aureus 171; format: functional
# Acinetobacter baumannii = assay: Antibacterial activity against Acinetobacter baumannii ATCC 19606 assessed as inhibition of bacterial growth incubated for 24 hrs by broth microdilution method; format: functional
# Staphylococcus aureus [26] = assay: Bactericidal activity against methicillin-resistant Staphylococcus aureus ATCC 33591 assessed as reduction in bacterial colonies formation at 2XMIC incubated for 12 hrs in MHB followed by culturing on agar plate for 24 hrs by time-kill kinetics based analysis; format: functional; parameters: scale not given: the % may be the effect or the level left; conditions: time 36 hrs
# Staphylococcus aureus [27] = assay: Antibacterial activity against methicillin-resistant Staphylococcus aureus ATCC 33591 infected in ip dosed Kunming mouse assessed as protection against bacterial infection administered for 7 days starting from 1 hr post-infection; format: functional
# Staphylococcus aureus [28] = assay: Antibacterial activity against methicillin-resistant Staphylococcus aureus ATCC 33591 infected in Kunming mouse assessed as reduction in bacterial load in kidney at 5 to 10 mg/kg, ip for 2 days starting from 1 hr post-infection by hematoxylin-eosin staining based analysis; format: functional, organism-based; conditions: dose 5-10 mg/kg, time 2.0 day
# Mesomycoplasma hyorhinis = assay: Anti-mycoplasma activity against Mycoplasma hyorhinis BTS-7 NCTC10130 assessed as inhibition of mycoplasma growth measured after 7 days by broth microdilution method; format: functional; conditions: BTS-7 NCTC10130, 168 h, time 7 day
# Cell membrane [29] = assay: Disruption of bacterial cell membrane in Escherichia coli ATCC 25922 assessed as reduction in green fluorescence intensity at MIC incubated for 2 hrs by MycoLightGreen1198/PI staining based confocal laser scanning microscopy
# Escherichia coli [30] = assay: Disruption of biofilm formation in Escherichia coli ATCC 25922 assessed as inhibition of biofilm formation at 4XMIC measured after 24 hrs by crystal violet staining based analysis; format: functional
# Escherichia coli [31] = assay: Disruption of biofilm formation in Escherichia coli ATCC 25922 assessed as inhibition of biofilm formation at MIC measured after 24 hrs by crystal violet staining based analysis; format: functional
# Cell membrane [32] = assay: Disruption of bacterial cell membrane in methicillin-resistant Staphylococcus aureus ATCC 33591 assessed as increase in fluorescence intensity at 8XMIC measured within 3 mins by DiBAC4(3) dye based fluorescence analysis relative to control; format: subcellular
compound,measurement,setting,value
C=C[C@]1(C)C[C@@H](OC(=O)CSc2nc(-c3cc[n+](Cc4ccc(C)cc4)cc3)cs2)[C@]2(C)[C@H](C)CC[C@]3(CCC(=O)[C@H]32)[C@@H](C)[C@@H]1O.[Br-],remaining at 10 min,[1],0%
same,MIC,Staphylococcus aureus [2],1 µg/mL
same,MIC,[3],0.004 µg/mL
same,Activity,Cell membrane [4],100%
same,Activity,Staphylococcus aureus [5],100%
same,MIC,Salmonella enterica,2 µg/mL
same,fold change (FC),Cell membrane [6],6
same,Activity,Cell membrane [7],Active
same,survival at 3 mg/kg,Staphylococcus aureus [8],42.9%
same,Tmax,[9],1.8 min
same,solubility at 12 h,[10],862 µM
same,MIC,Staphylococcus aureus [11],0.5 µg/mL
same,MIC,Staphylococcus aureus [12],1 µg/mL
same,MIC,Mycoplasmopsis synoviae,0.015 µg/mL
same,MIC,Escherichia coli [13],0.5 µg/mL
same,Activity,Escherichia coli [14],100%
same,CC50 at 48 h,[15],> 100 µM
same,Cmax,[16],9670 ng/mL
same,Activity,Cell membrane [17],Dose-Dependent Effect
same,MIC,Staphylococcus aureus [18],0.062 µg/mL
same,MIC,Staphylococcus aureus [19],2 µg/mL
same,CC50 at 48 h,[20],89.8 µM
same,Activity,Staphylococcus aureus [21],Active
same,inhibition (INH),Staphylococcus aureus [22],57.97%
same,CC50 at 48 h,[23],> 100 µM
same,AUC(0-t),[24],539 ng·h/mL
same,Ratio,Staphylococcus aureus [25],8
same,MIC,Acinetobacter baumannii,1 µg/mL
same,Activity,Staphylococcus aureus [26],100%
same,ED50,"Staphylococcus aureus [27]; ATCC 33591, 168 h, time 7 day",4.94 mg/kg
same,Activity,Staphylococcus aureus [27]; time 7.0 day,Dose-Dependent Effect
same,Activity,Staphylococcus aureus [28],Active
same,MIC,Mesomycoplasma hyorhinis,0.008 µg/mL
same,Activity,Cell membrane [29],Active
same,inhibition (INH),Escherichia coli [30],84.02%
same,inhibition (INH),Escherichia coli [31],59.04%
same,fold change (FC),Cell membrane [32],6
